Measured values: paper PMC9851200, “Multiparameter phenotypic screening for endogenous TFEB and TFE3 translocation identifies novel chemical series modulating lysosome function” (Autophagy, 2022)
“Also recorded” adds a separate entry of the source.

What was measured:
SH-SY5Y cells [1] = assay: Nuclear count from microscopy images (cellular growth and toxicity); conditions: PKIS2 primary screening
endogenous TFE3 = assay: TFE3 nuclear translocation, immunocytochemistry high-content imaging; assay type: cell-based; conditions: for TFE3 %: PKIS2 primary screening
endogenous TFEB = assay: TFEB nuclear translocation, immunocytochemistry high-content imaging; assay type: cell-based; conditions: for TFEB %: PKIS2 primary screening
SH-SY5Y cells [2] = conditions: for DQ Intensity / DQ Spot: PKIS2 primary screening; for DQ Intensity: DQ Red BSA intensity; for DQ Spot: DQ Red BSA spot count
Text: The PKIS2 Library was supplied by The Structural Genomics Consortium at the University of North Carolina at Chapel Hill.

SH-SY5Y cells [3] = assay: AK (adenylate kinase) release ToxiLight cytotoxicity assay; conditions: for AK: PKIS2 primary screening
Experimental: Total cell lysis with 5 µL 5% Triton-X 100 (Sigma-Aldrich, T8787) is used as a positive control for the assay and toxicity is expressed as a percentage of luminescence under DMSO conditions.

SH-SY5Y cells [4] = assay: Chemotype enrichment analysis of PKIS2 primary screen hit categories; conditions: PKIS2 primary screening, hit category

| SMILES | Nuclear Count (SH-SY5Y cells [1]) | TFE3 % (endogenous TFE3) [%] | TFEB % (endogenous TFEB) [%] | DQ Intensity (SH-SY5Y cells [2]) | DQ Spot (SH-SY5Y cells [2]) | AK (SH-SY5Y cells [3]) | Outcome (SH-SY5Y cells [4]) | TFE3 translocation (in words) (endogenous TFE3; SH-SY5Y, 24 h treatment) | TFEB translocation (in words) (endogenous TFEB; SH-SY5Y, 24 h treatment) | DQ Red BSA fluorescence intensity (in words) (SH-SY5Y cells [2]; SH-SY5Y, 24 h treatment) | DQ Red BSA spot count / active lysosome count (in words) (SH-SY5Y cells [2]; SH-SY5Y, 24 h treatment) | Cellular toxicity (AK release and nuclear count, in words) (SH-SY5Y cells [3]; SH-SY5Y, 24 h treatment) |
| --- | --- | --- | --- | --- | --- | --- | --- | --- | --- | --- | --- | --- |
| Cc1ccn2nc(-c3ccc(F)cc3)c(-c3ccncc3)c2c1.Cl [UNC10224989A] | 114.75 | 6.03 | 29.24 | 96.51 | 106.96 | 121.47 | TFEB | – | – | – | – | – |
| CS(=O)(=O)c1ccc(-c2nc3n(c2-c2ccncc2)CCC3)cc1 [UNC10224995A] | 122.53 | 13.24 | 6.71 | 130.38 | 113.84 | 200.60 | TOXIC | – | – | – | – | – |
| CN(C)S(=O)(=O)c1cc(-c2ccc3nccc(-c4cccc(S(N)(=O)=O)c4)c3c2)cnc1N [UNC10225457A] | 78.66 | 3.13 | 2.30 | 100.41 | 77.18 | 74.17 | LYSO TOXIC | – | – | – | – | – |
| Cl.Cl.NC(CNC(=O)c1cc(Br)c(-c2ccnc3[nH]ccc23)s1)c1ccccc1 (stereo not shown) [UNC10225176A] | 58.33 | 37.70 | 17.27 | 298.60 | 72.64 | 110.45 | TFEB/3 + DQ Int | – | – | – | – | – |
| FC(F)(F)c1ccc(-c2ncn(CCCN3CCOCC3)c2-c2ccncc2)cc1 [UNC10225425A] | 88.34 | 9.69 | 5.42 | 74.41 | 77.10 | 109.44 | LYSO TOXIC | – | – | – | – | – |
| Cc1ccc(O)cc1Nc1ccnc2ccc(C(C)(C)C)cc12 [UNC10225479A] | 78.69 | 19.57 | 23.46 | 91.49 | 60.27 | 75.82 | LYSO TOXIC | – | – | – | – | – |
| COc1ccc(-c2oc3ncnc(N)c3c2-c2ccc(OC)cc2)cc1 [UNC10225431A] | 51.87 | 9.25 | 4.87 | 144.39 | 120.26 | 79.67 | DQ Only | – | – | – | – | – |
| COc1ccc(C[C@@H](CN)NC(=O)c2cc(Br)c(-c3ccnc4[nH]ccc34)s2)cc1.Cl.Cl [UNC10225412A, reference compound] | 99.32 | 22.21 | 17.53 | 276.55 | 119.63 | 302.26 | TOXIC | strong TFE3 translocation; also recorded: translocation of TFEB and TFE3 | translocation of TFEB and TFE3 | increase in DQ Red BSA fluorescence intensity | small reduction in puncta count | no toxicity; also recorded: without cellular toxicity |
| Nc1nc(-c2cccnc2)c(-c2ccnc3ccccc23)s1 [UNC10225309A] | 71.32 | 14.98 | 13.96 | 115.27 | 134.42 | 67.30 | DQ and TFEB | – | – | – | – | – |
| COc1ccc(-c2nc3n(c2-c2ccncc2)CCC3)cc1 [UNC10225334A] | 82.13 | 11.25 | 5.64 | 120.06 | 119.57 | 77.50 | DQ Only | – | – | – | – | – |
| COc1cc2nccc(Nc3ccc(NC(=O)c4ccc(C)cc4)c(O)c3)c2cc1OC.Cl [UNC10225013A] | 63.58 | 46.99 | 33.18 | 86.65 | 65.59 | 100.53 | LYSO TOXIC | – | – | – | – | – |
